Data as given in patent US20090018169A1, “Sulfonamide Derivatives for the Treatment of Bacterial Infections” (Laboratoires Serono SA, priority 2006, published 2009).

Each molecule was assayed against recombinant MPTPB enzyme (Mycobacterium tuberculosis, UniProt I6WXK4) (assay: MPTPB enzymatic assay (DiFMUP substrate, fluorescence)). Conditions: recombinant MPTPB 50 ng/ml, pH 6.6, 45 minutes at room temperature.
Assay type: biochemical
Protocol: The compounds of the inventions have been tested in the following enzymatic assay:
Five μl of diluted compound or vehicle (100% DMSO) was distributed to a 96 well plate. 55 μl of DiFMUP 72.7 μM diluted in MPTPB buffer (20 mM Bis Tris HCl pH 6.6, 0.1% Brij 35, 1 mM DL-Dithiothreitol) was added, followed by 40 μl of recombinant MPTPB enzyme (50 ng/ml) diluted in MPTPB buffer in order to start the reaction. After 45 minutes incubation at room temperature fluorescence intensity was measured on a Perkin-Elmer Fusion spectrofluorimeter (excitation at 355 nm, emission at 460 nm, for 0.2 s).
Examples of inhibitory activities for compounds of the invention are set out in Table I below.

Chain of recombinant MPTPB enzyme (I6WXK4 whole entry, looked up): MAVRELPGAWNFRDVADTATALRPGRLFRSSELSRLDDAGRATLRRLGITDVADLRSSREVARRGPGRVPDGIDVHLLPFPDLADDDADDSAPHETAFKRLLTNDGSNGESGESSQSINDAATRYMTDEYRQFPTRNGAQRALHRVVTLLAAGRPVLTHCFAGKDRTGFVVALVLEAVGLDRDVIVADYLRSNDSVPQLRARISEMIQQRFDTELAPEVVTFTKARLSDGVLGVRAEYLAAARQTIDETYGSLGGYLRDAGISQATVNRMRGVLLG

| SMILES | IC50 [nM] |
| --- | --- |
| CCCCCCCCCCCCNS(=O)(=O)c1ccc(CN(Cc2ccccc2F)C(=O)C(=O)O)s1 [Example 6, [({5-[(dodecylamino)sulfonyl]-2-thienyl}methyl)(2-fluorobenzyl)amino]-(oxo)acetic acid] | 740 |
| O=C(O)C(=O)N(Cc1cccc(Cl)c1)Cc1ccc(S(=O)(=O)NCCC(c2ccccc2)c2ccccc2)s1 [Example 14, {(3-chlorobenzyl) [(5-{[(3,3-diphenylpropyl)amino]sulfonyl}-2-thienyl)-methyl]amino}(oxo)acetic acid] | 790 |
| CC(CNS(=O)(=O)c1ccc(CN(Cc2cccc(Cl)c2)C(=O)C(=O)O)s1)c1ccc(Cl)cc1 (stereo not drawn) [Example 24, ((3-chlorobenzyl){[5-({[2-(4-chlorophenyl)propyl]amino}sulfonyl)-2-thienyl]methyl}amino)(oxo)acetic acid] | 770 |
